ChEMBL document CHEMBL5649167, “The SUV4-20 inhibitor A-196 verifies a role for epigenetics in genomic integrity” (Nat Chem Biol, 2017)
Activity calls are given as the source filed them. The calls are words filed in the database; no cut-off is given here.

What was measured:
U2OS [1] = assay: Cytotoxicity against human U2OS cells assessed as cell viability at 1.5 to 100 uM incubated after 72 hrs; assay type: functional, cell-based; settings: dose 1.5-100 µM
LNCaP = assay: Cytotoxicity against human LNCaP cells assessed as cell viability at 1.5 to 100 uM incubated after 72 hrs; assay type: functional, cell-based; settings: dose 1.5-100 µM
[2] = molecular target: Protein arginine N-methyltransferase 1 (Homo sapiens) (UniProt Q99873); assay: Inhibition of PRMT1 (unknown origin) using Biotin-tagged H4K20me1 and [3H-SAM] as substrate at 1 to 10 uM incubated for 2 hrs by scintillation proximity assay; settings: dose 1-10 µM
[3] = molecular target: Serine/threonine-protein kinase PLK1 (Homo sapiens) (UniProt P53350); assay: Inhibition of human PLK1 at 10 uM relative to control
U2OS [4] = assay: Inhibition of H4K20me2 in human U2OS cells at 3 uM incubated for 48 hrs by Western blotting analysis; assay type: functional, cell-based
[5] = molecular target: MAP kinase-interacting serine/threonine-protein kinase 2 (Homo sapiens) (UniProt Q9HBH9); assay: Inhibition of human MNK2 at 10 uM relative to control
[6] = molecular target: N-lysine methyltransferase KMT5A (Homo sapiens) (UniProt Q9NQR1); assay: Inhibition of SETD8 (unknown origin) using Biotin-tagged H4K20me1 and [3H-SAM] as substrate at 1 to 10 uM incubated for 2 hrs by scintillation proximity assay; settings: dose 1-10 µM
[7] = molecular target: DNA (cytosine-5)-methyltransferase 1 (Homo sapiens) (UniProt P26358); assay: Inhibition of DNMT1 (unknown origin) using dsDNA as substrate at 1 to 10 uM incubated for 1 hrs in the presence of [3H-SAM] by scintillation proximity assay; settings: dose 1-10 µM
[8] = molecular target: Sodium-dependent dopamine transporter (Homo sapiens) (UniProt Q01959); assay: Inhibition of human DAT in stable HEK cells at 10 uM relative to control; assay type: cell-based
U2OS [9] = assay: Induction of DNA repair in human U2OS cells expressing I-SceI reporter assessed as substantially inhibition in NHEJ-mediated repair at 1 uM by flow cytometry analysis; assay type: functional, cell-based
[10] = molecular target: Serine/threonine-protein kinase PAK 2 (Homo sapiens) (UniProt Q13177); assay: Inhibition of human PAK2 at 10 uM relative to control
[11] = molecular target: Mitogen-activated protein kinase 14 (Homo sapiens) (UniProt Q16539); assay: Inhibition of human p38alpha at 10 uM relative to control
[12] = molecular target: Serine/threonine-protein kinase TAO2 (Homo sapiens) (UniProt Q9UL54); assay: Inhibition of human TAOK2 at 10 uM relative to control
[13] = molecular target: Histone-lysine N-methyltransferase 2C (Homo sapiens) (UniProt Q8NEZ4); assay: Inhibition of MLL3 (unknown origin) using Biotin-tagged H4K20me1 and [3H-SAM] as substrate at 1 to 10 uM incubated for 2 hrs by scintillation proximity assay; settings: dose 1-10 µM
U2OS [14] = assay: Induction of DNA repair in human U2OS cells assessed as inhibition in 53BP1 foci formation at 1 uM measured after 24 hrs in the presence of 10 Gy of ionizing radiation by immunofluorescence analysis; assay type: functional, cell-based
[15] = molecular target: 5-hydroxytryptamine receptor 1B (Homo sapiens) (UniProt P28222); assay: Inhibition of human 5-hydroxytryptamine receptor 1B at 10 uM relative to control
[16] = molecular target: Proto-oncogene tyrosine-protein kinase Src (Homo sapiens) (UniProt P12931); assay: Inhibition of human Src at 10 uM relative to control
[17] = molecular target: Serine/threonine-protein kinase Sgk1 (Homo sapiens) (UniProt O00141); assay: Inhibition of human SGK1 at 10 uM relative to control
[18] = molecular target: Tyrosine-protein kinase ABL1 (Homo sapiens) (UniProt P00519); assay: Inhibition of human Abl at 10 uM relative to control
HL-60 = assay: Cytotoxicity against human HL-60 cells assessed as cell viability at 1.5 to 100 uM incubated after 72 hrs; assay type: functional, cell-based; settings: dose 1.5-100 µM
[19] = molecular target: Glycogen synthase kinase-3 beta (Homo sapiens) (UniProt P49841); assay: Inhibition of human GSK3beta at 10 uM relative to control
[20] = molecular target: Cyclin-dependent kinase 2 (Homo sapiens) (UniProt P24941); assay: Inhibition of human CDK2 at 10 uM relative to control
[21] = molecular target: Serine/threonine-protein kinase pim-2 (Homo sapiens) (UniProt Q9P1W9); assay: Inhibition of human Pim2 at 10 uM relative to control
[22] = molecular target: High affinity nerve growth factor receptor (Homo sapiens) (UniProt P04629); assay: Inhibition of human TRKA at 10 uM relative to control
PC-3 = assay: Antiproliferative activity against human PC-3 cells assessed as cell population doubling at 1 uM incubated for 80 days; assay type: functional, cell-based; settings: time 80.0 day
[23] = molecular target: Endothelin-1 receptor (Homo sapiens) (UniProt P25101); assay: Inhibition of human ETA at 10 uM relative to control
[24] = molecular target: 3-phosphoinositide-dependent protein kinase 1 (Homo sapiens) (UniProt O15530); assay: Inhibition of human PDK1 at 10 uM relative to control
[25] = molecular target: cAMP-dependent protein kinase (PKA) (Homo sapiens) (UniProt P22694+P17612+P22612); assay: Inhibition of human PKA at 10 uM relative to control; assay type: protein assay
[26] = molecular target: Protein arginine N-methyltransferase 6 (Homo sapiens) (UniProt Q96LA8); assay: Inhibition of PRMT6 (unknown origin) using Biotin-tagged H4K20me1 and [3H-SAM] as substrate at 1 to 10 uM incubated for 2 hrs by scintillation proximity assay; settings: dose 1-10 µM
[27] = molecular target: D(1B) dopamine receptor (Homo sapiens) (UniProt P21918); assay: Inhibition of human D(5) dopamine receptor expressed in HEK293T cells at 10 uM relative to control; assay type: cell-based
U2OS [28] = assay: Antiproliferative activity against human U2OS cells assessed as inhibition in H4K20me2 expression level 21 doublings by Western blot analysis; assay type: functional, cell-based
HeLa [29] = assay: Antiproliferative activity against human HeLa cells assessed as cell population doubling at 1 uM incubated for 80 days; assay type: functional, cell-based; settings: time 80.0 day
HeLa [30] = assay: Antiproliferative activity against human HeLa cells assessed as inhibition in H4K20me3 expression level for 21 doublings by Western blot analysis; assay type: functional, cell-based

Sequence of D(1B) dopamine receptor (Homo sapiens) (P21918 whole entry): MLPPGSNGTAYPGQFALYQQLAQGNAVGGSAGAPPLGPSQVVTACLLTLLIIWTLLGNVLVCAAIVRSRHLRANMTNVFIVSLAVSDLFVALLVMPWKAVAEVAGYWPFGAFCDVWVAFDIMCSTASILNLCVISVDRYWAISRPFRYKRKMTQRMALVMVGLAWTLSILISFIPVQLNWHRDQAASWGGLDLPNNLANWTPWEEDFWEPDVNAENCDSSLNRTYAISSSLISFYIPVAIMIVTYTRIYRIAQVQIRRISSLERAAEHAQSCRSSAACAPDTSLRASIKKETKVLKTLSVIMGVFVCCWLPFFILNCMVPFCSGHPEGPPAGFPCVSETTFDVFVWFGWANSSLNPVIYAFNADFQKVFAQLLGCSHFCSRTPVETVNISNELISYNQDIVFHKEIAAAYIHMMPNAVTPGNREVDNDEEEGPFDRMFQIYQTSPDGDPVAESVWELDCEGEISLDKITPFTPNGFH
Sequence of Tyrosine-protein kinase ABL1 (Homo sapiens) (P00519 whole entry): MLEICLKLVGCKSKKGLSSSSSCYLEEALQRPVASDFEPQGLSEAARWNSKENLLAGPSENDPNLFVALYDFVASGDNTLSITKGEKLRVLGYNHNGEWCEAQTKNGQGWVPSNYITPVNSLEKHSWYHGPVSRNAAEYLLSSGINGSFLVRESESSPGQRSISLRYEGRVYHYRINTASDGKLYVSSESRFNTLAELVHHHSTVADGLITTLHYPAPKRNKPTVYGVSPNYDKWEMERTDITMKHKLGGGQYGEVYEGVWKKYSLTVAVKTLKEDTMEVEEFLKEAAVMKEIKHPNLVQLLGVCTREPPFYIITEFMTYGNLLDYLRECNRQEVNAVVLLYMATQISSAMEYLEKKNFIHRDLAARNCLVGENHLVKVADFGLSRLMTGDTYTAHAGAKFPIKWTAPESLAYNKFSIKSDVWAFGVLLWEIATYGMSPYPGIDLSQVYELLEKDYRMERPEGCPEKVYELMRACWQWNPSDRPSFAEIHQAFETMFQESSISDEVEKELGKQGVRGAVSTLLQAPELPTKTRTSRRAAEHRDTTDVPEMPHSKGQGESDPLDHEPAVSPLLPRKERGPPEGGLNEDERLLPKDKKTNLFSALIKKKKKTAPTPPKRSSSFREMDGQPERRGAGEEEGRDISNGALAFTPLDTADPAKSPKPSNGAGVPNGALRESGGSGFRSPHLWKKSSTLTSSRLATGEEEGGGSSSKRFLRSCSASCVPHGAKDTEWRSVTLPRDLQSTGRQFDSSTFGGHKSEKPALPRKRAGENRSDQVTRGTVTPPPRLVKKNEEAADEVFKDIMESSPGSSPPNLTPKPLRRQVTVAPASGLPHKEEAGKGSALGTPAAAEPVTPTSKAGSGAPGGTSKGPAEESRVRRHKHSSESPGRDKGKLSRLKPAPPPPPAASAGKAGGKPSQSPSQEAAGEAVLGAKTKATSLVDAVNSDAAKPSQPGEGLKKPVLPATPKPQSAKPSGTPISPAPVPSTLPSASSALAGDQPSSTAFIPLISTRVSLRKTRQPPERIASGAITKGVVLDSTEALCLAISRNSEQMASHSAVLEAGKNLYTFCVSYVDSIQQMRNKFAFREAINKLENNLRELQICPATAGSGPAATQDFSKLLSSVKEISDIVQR
Sequence of Glycogen synthase kinase-3 beta (Homo sapiens) (P49841 whole entry, looked up): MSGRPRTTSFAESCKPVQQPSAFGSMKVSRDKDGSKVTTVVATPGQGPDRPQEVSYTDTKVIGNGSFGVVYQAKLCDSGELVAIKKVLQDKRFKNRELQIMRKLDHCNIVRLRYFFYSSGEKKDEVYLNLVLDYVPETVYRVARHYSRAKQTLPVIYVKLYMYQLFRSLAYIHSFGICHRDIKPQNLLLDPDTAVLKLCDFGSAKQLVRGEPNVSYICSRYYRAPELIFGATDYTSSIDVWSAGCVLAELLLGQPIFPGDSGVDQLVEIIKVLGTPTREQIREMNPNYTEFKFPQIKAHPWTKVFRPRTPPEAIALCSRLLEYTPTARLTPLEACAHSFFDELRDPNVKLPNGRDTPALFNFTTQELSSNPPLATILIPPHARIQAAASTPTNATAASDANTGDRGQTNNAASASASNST
Sequence of Protein arginine N-methyltransferase 1 (Homo sapiens) (Q99873 whole entry, looked up): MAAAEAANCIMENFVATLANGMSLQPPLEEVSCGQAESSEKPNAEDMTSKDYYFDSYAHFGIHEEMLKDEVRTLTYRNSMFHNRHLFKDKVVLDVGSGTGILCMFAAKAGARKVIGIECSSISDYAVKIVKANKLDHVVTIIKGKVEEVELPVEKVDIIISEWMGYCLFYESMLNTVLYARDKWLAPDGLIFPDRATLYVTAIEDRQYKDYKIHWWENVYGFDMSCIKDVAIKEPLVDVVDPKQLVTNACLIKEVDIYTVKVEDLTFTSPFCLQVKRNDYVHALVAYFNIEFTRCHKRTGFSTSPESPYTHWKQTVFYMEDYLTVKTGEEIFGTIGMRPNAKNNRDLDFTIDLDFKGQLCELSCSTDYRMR
Sequence of Serine/threonine-protein kinase PLK1 (Homo sapiens) (P53350 whole entry): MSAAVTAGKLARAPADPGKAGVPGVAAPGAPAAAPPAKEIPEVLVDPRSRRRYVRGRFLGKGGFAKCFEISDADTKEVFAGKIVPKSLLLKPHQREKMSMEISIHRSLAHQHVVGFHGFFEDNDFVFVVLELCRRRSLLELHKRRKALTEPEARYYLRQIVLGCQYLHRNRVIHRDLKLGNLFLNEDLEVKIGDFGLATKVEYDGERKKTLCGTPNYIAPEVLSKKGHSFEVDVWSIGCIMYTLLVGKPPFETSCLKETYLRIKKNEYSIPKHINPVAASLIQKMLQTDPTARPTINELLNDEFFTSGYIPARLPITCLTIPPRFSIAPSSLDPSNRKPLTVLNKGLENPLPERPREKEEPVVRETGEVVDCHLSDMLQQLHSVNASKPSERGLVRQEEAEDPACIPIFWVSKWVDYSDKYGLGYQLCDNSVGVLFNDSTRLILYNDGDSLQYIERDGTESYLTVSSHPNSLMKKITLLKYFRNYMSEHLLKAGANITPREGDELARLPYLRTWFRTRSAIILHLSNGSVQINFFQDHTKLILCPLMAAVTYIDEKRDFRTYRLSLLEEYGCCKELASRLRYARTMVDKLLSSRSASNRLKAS
Sequence of Mitogen-activated protein kinase 14 (Homo sapiens) (Q16539 whole entry): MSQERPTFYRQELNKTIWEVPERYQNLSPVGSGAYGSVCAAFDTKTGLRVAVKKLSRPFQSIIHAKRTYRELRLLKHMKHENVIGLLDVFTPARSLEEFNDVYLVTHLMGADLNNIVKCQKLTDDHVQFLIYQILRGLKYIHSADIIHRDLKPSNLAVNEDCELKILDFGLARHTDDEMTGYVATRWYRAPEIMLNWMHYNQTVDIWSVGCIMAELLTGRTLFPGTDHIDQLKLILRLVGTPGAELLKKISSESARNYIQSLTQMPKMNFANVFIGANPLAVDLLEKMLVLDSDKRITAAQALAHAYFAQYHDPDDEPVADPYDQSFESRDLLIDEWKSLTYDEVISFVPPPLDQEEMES
Sequence of Serine/threonine-protein kinase Sgk1 (Homo sapiens) (O00141 whole entry): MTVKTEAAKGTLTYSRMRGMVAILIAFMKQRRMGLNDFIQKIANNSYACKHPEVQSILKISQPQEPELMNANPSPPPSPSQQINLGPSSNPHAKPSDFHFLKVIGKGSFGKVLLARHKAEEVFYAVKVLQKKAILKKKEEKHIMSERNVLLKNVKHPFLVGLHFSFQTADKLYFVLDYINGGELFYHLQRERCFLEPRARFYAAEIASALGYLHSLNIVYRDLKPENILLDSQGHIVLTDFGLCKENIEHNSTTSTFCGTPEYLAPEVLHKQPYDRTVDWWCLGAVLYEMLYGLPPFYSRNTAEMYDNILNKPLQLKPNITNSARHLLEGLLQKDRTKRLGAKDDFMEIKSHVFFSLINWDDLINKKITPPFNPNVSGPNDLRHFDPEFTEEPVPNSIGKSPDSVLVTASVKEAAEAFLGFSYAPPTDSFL
Sequence of Serine/threonine-protein kinase pim-2 (Homo sapiens) (Q9P1W9 whole entry, looked up): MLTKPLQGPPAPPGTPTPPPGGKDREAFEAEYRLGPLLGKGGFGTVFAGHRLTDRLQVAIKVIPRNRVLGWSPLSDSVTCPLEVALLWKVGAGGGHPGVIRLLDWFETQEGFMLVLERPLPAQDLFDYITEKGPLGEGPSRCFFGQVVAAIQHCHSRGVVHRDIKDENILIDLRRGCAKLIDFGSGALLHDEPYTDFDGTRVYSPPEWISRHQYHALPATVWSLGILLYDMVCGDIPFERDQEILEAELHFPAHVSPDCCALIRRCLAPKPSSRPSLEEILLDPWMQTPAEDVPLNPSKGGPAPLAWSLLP
Sequence of Protein arginine N-methyltransferase 6 (Homo sapiens) (Q96LA8 whole entry, looked up): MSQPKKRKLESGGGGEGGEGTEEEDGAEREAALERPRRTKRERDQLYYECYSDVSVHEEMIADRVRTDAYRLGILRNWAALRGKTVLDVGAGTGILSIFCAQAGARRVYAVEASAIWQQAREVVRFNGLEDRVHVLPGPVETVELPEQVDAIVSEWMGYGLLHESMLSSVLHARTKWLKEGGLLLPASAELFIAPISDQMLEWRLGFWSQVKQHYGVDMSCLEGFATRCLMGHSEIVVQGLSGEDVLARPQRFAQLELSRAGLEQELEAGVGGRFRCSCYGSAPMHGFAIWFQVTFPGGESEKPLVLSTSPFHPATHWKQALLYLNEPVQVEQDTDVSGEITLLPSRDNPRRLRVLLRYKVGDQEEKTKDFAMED
Sequence of Endothelin-1 receptor (Homo sapiens) (P25101 whole entry): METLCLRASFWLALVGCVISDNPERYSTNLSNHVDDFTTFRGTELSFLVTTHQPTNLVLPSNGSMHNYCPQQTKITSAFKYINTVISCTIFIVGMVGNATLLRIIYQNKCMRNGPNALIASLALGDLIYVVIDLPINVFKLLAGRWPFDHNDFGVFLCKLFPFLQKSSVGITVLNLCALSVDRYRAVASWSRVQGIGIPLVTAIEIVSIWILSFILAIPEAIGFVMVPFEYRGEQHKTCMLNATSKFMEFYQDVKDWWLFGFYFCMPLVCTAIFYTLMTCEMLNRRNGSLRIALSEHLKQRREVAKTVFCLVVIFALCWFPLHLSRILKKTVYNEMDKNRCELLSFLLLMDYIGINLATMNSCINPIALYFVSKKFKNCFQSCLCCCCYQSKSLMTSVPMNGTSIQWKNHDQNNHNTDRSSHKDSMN

Clc1cc2c(NC3CCCC3)nnc(-c3ccncc3)c2cc1Cl
Activity (U2OS [1]): Active | Activity (LNCaP): Active | inhibition [2]: inactive | inhibition [3]: -10% | inhibition (U2OS [4]): Active | inhibition [5]: 7% | inhibition [6]: inactive | inhibition [7]: inactive | inhibition [8]: -4% | Activity (U2OS [9]): Active | inhibition [10]: -2% | inhibition [11]: -4% | inhibition [12]: 0% | inhibition [13]: inactive | inhibition (U2OS [14]): Active | inhibition [15]: 20% | inhibition [16]: -1% | inhibition [17]: -4% | inhibition [18]: 2% | Activity (HL-60): Active | inhibition [19]: 1% | inhibition [20]: -1% | inhibition [21]: -3% | inhibition [22]: 1% | Activity (PC-3): Active | inhibition [23]: -5% | inhibition [24]: -7% | inhibition [25]: -1% | inhibition [26]: inactive | inhibition [27]: -4% | Activity (U2OS [28]): Active | Activity (HeLa [29]): Active | Activity (HeLa [30]): Active
